Laboratory results taken from patent publication US9926340B2, “NAD analogs and methods of using said NAD analogs in determining ribosylation of proteins with PARP mutants” (The Board of Regents of the University of Texas System, priority 2015, dated 2018).
Entries after “also recorded” stand apart in the source; their conditions may differ.

Biological target: T1, asPARP-1 in nuclei from Parp1−/− MEFs (Mus musculus, UniProt P11103, L876A)
T1 construct: expressed in transfected cells; host or cells: Parp1-/- mouse embryonic fibroblasts, lentiviral transduction, isolated nuclei
T1 sequence (P11103 whole entry L876A): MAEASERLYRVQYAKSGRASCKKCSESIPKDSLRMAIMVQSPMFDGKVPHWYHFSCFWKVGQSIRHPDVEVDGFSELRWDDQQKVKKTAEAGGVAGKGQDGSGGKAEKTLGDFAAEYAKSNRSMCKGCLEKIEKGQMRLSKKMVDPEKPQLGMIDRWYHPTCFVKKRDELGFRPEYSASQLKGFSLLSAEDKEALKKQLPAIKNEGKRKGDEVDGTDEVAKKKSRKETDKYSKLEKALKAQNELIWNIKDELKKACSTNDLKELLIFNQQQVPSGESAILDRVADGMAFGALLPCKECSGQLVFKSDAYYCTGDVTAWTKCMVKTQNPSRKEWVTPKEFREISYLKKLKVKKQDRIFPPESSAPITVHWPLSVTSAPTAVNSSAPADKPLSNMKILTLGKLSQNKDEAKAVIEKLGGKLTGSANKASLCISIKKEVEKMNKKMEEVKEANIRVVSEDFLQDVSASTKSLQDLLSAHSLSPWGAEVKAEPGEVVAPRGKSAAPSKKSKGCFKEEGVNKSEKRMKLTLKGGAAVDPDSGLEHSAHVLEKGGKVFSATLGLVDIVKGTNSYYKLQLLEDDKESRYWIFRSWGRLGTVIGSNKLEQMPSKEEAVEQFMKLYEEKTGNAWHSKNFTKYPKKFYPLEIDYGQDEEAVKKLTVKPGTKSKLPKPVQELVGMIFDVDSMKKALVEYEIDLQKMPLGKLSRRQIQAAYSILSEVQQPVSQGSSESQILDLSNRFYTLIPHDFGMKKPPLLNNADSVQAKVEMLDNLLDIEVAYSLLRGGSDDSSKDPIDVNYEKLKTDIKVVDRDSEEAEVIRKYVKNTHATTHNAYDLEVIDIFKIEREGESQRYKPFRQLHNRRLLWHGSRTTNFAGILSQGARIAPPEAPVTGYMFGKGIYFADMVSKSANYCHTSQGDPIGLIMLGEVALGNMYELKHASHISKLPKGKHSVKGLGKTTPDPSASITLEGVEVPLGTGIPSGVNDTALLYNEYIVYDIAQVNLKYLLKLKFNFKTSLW
Assay: 8-Bu(3-yne)T-ADP-ribosylation reactions in intact nuclei
Format: cell-based
Conditions: Parp1−/− MEF nuclei, 250 μM analog, 30 minutes at 25° C.
Protocol: 50% confluent MEF cells expressing asPARP-1 were harvested with cold PBS using a rubber policeman and collected by centrifugation for 5 minutes at 800 RCF at 4° C. Cells were resuspended for 10 minutes to facilitate cell swelling in Nuclear Isolation Buffer (10 mM HEPES, pH 8.0, 2 mM MgCl2, 3 mM CaCl2, 300 mM Sucrose, 1 mM DTT, 1 mM PMSF, 4 mM Benzamidine, 1 μM Aprotinin, 100 μM Leupeptin, 1 μM Pepstatin A, and 1 in 250 parts SIGMA Phosphatase Inhibitor Cocktails 2 and 3). Nuclei were released from cells by addition of NP-40 to 0.65% under medium vortex and immediately collected by centrifugation at 10,000 RCF for 1 minute at 4° C. […]
Following 8-Bu(3-yne)T-ADP-ribosylation in intact nuclei from MEFs as described above, the nuclei were washed once with Nuclei Click Reaction Buffer (10 mM HEPES, pH 8.0, 10 mM NaCl, 10 mM spermidine, 0.1% NP-40, with freshly added protease inhibitors) and then clicked twice to Alexa Fluor 488 by the sequential addition of 100 μM azido-Alexa Fluor 488 (Life Technologies), a pre-formed complex of CuSO4:THPTA (1.0 mM:5.0 mM), and 5 mM sodium ascorbate. […] Fluorescence was visualized via confocal microscopy using a Leica TCS SP2 Confocal Microscope.

C#CCCSc1nc2c(N)ncnc2n1[C@@H]1O[C@H](COP(=O)(O)OP(=O)(O)OC[C@H]2O[C@@H]([n+]3cccc(C(N)=O)c3)C(O)C2O)[C@H](O)C1O (stereo partly shown) [8-Bu(3-yne)T-NAD^+]
ADP-ribosylation in intact nuclei expressing asPARP-1: catalytically active; also recorded: clearly evident
